Values of other authors as cited in patent US12584131B2, “Methods of gene therapy” (OREGON HEALTH & SCIENCE UNIVERSITY, priority 2018, dated 2026).
Where two headings read alike, the source gives them in different places.

System: CYP enzymes
[1] = CYP enzymes that activate the prodrug (protoxin)

SMILES | Metabolizing CYP [1] | Metabolizing CYP | Metabolizing CYP (listed as acetaminophen)
Nc1c2c(nc3ccccc13)CCCC2 [Tacrine] | CYP1A2 |  | 
C/C=C1\C[C@@H](C)[C@@](C)(O)C(=O)OC/C2=C/CN(C)CC[C@@H](OC1=O)C2=O [Senkirkin] | CYP3A4 |  | 
COc1cccc(C2(O)CCCCC2CN(C)C)c1 (stereo not drawn) [Tramadol] | CYP2D6 |  | 
CN(C)/N=N/c1[nH]cnc1C(N)=O [Dascarbazine] | CYP1A1, CYP1A2, CYP2E1 |  | 
CC(=O)N1CCN(c2ccc(OCC3COC(Cn4ccnc4)(c4ccc(Cl)cc4Cl)O3)cc2)CC1 (stereo not drawn) [Ketoconazole] | CYP3A4 |  | 
O=c1[nH]c(=O)n(C2CCCO2)cc1F (stereo not drawn) [Tegafur] | CYP2A6, CYP1A2, CYP2C8 |  | 
O=P1(N(CCCl)CCCl)NCCCO1 (stereo not drawn) [Cyclophosphamide] |  | CYP2B6, CYP2C9, CYP3A4 | 
CC(=O)Nc1ccc(O)cc1 [Acetaminophen] |  | CYP2E1, CYP1A2, CYP3A4, CYP2D6 | CYP1A2, CYP2E1, and CYP3A4
